Measurements taken from ChEMBL document CHEMBL1153301, “Identification and SAR of novel diaminopyrimidines. Part 1: The discovery of RO-4, a dual P2X(3)/P2X(2/3) antagonist for the treatment of pain” (Bioorg Med Chem Lett, 2009).

What was measured:
P2X purinoceptor 3 = target: T1, P2X purinoceptor 3 (Rattus norvegicus, UniProt P49654); assay: Antagonist activity at rat recombinant P2X3 receptor expressed in CHO cells by FLIPR assay
T1 sequence (P49654 whole entry): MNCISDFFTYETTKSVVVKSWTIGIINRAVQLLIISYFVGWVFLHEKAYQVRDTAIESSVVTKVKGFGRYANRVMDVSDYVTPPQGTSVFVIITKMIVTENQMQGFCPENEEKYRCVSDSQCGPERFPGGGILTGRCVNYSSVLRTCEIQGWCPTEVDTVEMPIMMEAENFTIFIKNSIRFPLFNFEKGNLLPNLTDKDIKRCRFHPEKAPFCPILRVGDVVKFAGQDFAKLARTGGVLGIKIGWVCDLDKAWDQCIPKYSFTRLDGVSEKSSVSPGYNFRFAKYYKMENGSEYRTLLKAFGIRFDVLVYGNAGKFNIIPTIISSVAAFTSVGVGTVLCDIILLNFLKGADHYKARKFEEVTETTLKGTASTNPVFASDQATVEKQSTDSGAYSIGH

[1] = target: T2, P2X2/P2X3 heterotrimeric receptor (Homo sapiens, UniProt P56373+Q9UBL9); assay: Antagonist activity at human recombinant P2X2/3 receptor expressed in human 1321N1 cells by FLIPR assay; assay type: functional, cell-based
T2 sequence (Q9UBL9 whole entry): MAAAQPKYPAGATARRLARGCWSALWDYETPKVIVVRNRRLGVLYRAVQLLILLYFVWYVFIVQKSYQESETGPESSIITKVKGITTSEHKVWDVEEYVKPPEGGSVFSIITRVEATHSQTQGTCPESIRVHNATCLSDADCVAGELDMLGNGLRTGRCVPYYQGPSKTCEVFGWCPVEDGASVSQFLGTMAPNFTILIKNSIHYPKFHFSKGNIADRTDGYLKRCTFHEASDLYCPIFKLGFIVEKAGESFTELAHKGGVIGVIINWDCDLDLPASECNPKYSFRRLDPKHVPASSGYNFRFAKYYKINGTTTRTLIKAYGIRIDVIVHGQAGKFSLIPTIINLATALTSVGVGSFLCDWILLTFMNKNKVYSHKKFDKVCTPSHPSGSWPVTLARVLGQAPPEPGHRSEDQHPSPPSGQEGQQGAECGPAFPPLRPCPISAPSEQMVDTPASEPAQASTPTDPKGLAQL
T2 sequence (P56373 whole entry): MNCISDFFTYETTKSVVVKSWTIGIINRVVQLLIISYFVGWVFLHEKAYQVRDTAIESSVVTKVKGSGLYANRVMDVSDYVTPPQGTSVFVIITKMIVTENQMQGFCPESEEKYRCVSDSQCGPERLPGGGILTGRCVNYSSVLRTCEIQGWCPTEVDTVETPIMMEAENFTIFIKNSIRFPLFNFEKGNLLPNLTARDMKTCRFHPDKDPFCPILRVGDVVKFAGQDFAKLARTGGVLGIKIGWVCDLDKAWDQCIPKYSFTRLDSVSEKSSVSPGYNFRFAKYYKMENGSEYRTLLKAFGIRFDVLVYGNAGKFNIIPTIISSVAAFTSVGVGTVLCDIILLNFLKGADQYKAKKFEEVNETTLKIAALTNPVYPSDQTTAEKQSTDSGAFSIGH

[2] = Clearance in dog; assay type: ADME, organism-based, Canis lupus familiaris; conditions: in vivo
P2X purinoceptor 1 = target: T3, P2X purinoceptor 1 (Homo sapiens, UniProt P51575); assay: Inhibition of P2X1 receptor
T3 sequence (P51575 whole entry): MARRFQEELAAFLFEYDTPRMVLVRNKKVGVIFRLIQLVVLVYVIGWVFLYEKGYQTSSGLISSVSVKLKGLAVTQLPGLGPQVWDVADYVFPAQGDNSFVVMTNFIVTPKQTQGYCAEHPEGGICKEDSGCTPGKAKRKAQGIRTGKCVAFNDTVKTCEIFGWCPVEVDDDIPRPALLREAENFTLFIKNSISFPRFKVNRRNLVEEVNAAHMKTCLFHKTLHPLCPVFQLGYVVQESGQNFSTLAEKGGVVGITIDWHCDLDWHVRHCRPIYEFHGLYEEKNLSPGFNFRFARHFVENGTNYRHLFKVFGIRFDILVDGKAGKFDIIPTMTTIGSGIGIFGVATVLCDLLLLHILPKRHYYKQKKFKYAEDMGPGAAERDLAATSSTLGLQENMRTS

P2X purinoceptor 4 = target: T4, P2X purinoceptor 4 (Homo sapiens, UniProt Q99571); assay: Inhibition of P2X4 receptor
T4 sequence (Q99571 whole entry): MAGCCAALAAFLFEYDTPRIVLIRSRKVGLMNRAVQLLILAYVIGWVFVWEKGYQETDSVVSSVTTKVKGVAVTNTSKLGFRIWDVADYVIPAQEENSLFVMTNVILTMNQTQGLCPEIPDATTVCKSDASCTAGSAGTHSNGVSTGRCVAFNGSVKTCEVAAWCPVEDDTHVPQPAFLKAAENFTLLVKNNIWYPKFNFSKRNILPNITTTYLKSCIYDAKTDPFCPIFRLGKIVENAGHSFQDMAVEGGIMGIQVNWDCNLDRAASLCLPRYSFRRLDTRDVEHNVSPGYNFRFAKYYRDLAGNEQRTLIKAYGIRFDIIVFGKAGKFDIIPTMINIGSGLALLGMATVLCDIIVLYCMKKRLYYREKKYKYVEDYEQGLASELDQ

P2X purinoceptor 7 = target: T5, P2X purinoceptor 7 (Homo sapiens, UniProt Q99572); assay: Inhibition of P2X7 receptor
T5 sequence (Q99572 whole entry): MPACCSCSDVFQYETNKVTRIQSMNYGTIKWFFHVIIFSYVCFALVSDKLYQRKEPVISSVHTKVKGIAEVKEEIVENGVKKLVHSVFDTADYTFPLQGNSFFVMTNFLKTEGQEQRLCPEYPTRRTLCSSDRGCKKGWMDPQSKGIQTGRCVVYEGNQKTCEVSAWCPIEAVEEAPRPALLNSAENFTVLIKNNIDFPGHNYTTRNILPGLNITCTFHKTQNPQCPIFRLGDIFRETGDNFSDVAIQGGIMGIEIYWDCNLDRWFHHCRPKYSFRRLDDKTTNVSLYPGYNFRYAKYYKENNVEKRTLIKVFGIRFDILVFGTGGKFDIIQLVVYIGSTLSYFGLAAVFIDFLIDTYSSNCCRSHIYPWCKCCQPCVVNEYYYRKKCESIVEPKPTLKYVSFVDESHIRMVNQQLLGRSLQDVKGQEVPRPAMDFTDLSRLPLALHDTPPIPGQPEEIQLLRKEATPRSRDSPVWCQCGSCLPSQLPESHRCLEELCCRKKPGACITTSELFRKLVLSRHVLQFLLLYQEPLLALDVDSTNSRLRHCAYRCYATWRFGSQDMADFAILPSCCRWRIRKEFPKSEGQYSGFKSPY

P2X purinoceptor 5 = P2X purinoceptor 5 (Homo sapiens, UniProt Q93086); assay: Inhibition of P2X5 receptor
Sequence of P2X purinoceptor 5 (Q93086 whole entry): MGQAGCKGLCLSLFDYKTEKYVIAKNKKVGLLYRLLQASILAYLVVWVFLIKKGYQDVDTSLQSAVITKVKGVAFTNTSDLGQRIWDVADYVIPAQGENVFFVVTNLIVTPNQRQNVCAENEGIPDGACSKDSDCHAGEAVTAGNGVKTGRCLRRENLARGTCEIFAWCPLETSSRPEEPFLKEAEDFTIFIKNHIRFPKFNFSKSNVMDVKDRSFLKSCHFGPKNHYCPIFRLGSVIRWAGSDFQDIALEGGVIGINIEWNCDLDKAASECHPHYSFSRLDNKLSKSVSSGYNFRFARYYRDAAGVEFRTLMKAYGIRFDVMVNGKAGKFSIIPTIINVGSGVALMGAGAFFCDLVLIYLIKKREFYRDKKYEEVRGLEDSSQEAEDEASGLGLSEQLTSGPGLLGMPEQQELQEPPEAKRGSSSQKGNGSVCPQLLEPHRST

[3] = target: T6, 5-hydroxytryptamine receptor 3A (Homo sapiens, UniProt P46098); assay: Inhibition of 5HT3 receptor
T6 sequence (P46098 whole entry): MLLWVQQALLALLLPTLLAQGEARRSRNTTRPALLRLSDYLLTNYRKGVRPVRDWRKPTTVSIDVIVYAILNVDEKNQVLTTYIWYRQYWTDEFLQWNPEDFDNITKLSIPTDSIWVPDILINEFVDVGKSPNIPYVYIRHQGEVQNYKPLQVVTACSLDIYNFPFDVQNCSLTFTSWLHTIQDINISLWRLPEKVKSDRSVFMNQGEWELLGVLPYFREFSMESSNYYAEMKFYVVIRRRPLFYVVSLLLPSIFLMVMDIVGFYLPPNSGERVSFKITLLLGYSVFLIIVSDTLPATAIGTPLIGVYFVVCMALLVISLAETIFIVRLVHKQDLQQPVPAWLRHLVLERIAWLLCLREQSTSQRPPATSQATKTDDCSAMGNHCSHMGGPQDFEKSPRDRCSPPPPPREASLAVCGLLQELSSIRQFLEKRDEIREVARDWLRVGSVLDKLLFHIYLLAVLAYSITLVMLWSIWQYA

Caco-2 = assay: Ratio of permeability from basolateral to apical side over apical to basolateral side in human Caco-2 cells; assay type: ADME, cell-based
[4] = target: 5-hydroxytryptamine receptor 2A (Homo sapiens, UniProt P28223); assay: Inhibition of 5HT2A receptor
Sequence of 5-hydroxytryptamine receptor 2A (P28223 whole entry): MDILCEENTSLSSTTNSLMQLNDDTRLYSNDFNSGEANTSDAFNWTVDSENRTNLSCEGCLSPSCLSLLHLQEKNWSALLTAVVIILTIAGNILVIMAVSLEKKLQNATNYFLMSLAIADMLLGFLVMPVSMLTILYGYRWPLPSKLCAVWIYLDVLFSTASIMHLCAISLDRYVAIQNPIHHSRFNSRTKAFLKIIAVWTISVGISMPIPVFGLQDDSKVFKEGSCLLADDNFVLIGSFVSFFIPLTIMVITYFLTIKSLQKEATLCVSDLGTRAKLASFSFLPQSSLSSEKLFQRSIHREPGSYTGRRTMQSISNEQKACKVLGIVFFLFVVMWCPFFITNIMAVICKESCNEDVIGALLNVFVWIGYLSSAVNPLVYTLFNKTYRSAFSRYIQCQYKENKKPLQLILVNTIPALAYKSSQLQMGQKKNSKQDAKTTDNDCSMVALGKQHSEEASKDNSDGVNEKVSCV

P2X purinoceptor 2 = target: T7, P2X purinoceptor 2 (Homo sapiens, UniProt Q9UBL9); assay: Inhibition of P2X2 receptor
T7 sequence (Q9UBL9 whole entry): T2 sequence (Q9UBL9 whole entry)

[5] = target: 5-hydroxytryptamine receptor 6 (Homo sapiens, UniProt P50406); assay: Inhibition of 5HT6 receptor
Sequence of 5-hydroxytryptamine receptor 6 (P50406 whole entry): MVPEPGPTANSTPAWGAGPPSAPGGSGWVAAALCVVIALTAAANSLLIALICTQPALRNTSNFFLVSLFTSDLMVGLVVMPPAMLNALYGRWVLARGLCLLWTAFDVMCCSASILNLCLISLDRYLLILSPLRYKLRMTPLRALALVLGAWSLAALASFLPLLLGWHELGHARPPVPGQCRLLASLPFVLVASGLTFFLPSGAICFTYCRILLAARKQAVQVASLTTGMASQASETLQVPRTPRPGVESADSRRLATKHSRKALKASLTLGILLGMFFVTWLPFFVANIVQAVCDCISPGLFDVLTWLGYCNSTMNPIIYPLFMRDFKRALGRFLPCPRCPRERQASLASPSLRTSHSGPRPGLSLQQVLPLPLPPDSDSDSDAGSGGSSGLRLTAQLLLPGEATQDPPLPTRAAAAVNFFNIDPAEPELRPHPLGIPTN

Histamine H2 receptor = Histamine H2 receptor (Homo sapiens, UniProt P25021); assay: Inhibition of histamine H2 receptor
Sequence of Histamine H2 receptor (P25021 whole entry): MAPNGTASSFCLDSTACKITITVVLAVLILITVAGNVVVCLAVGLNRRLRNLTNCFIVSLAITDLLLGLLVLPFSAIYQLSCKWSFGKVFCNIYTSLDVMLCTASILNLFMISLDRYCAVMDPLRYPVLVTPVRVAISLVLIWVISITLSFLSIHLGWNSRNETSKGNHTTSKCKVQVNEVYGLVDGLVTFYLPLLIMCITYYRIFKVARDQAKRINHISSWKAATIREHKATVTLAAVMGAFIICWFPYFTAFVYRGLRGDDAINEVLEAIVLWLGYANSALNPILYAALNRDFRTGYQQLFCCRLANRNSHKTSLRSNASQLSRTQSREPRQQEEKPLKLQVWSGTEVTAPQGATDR

[6] = Inhibition of ML1 receptor

Row | IC50 (P2X purinoceptor 3) | IC50 [1] | Compound | other results
1 | 398 nM | 158 nM | COc1ccc(C(C)C)c(Oc2cnc(N)nc2N)c1 | –
2 | 100 nM | 398 nM | COc1cc(C(C)C)c(Oc2cnc(N)nc2N)cc1C | –
3 | 631 nM | 2510 nM | COc1cc(C(C)C)c(Oc2cnc(N)nc2N)cc1C#N | –
4 | 100 nM | 1000 nM | COc1cc(C(C)C)c(Oc2cnc(N)nc2N)cc1S(C)(=O)=O | –
5 | 158 nM | 631 nM | COc1cc(C(C)C)c(Oc2cnc(N)nc2N)cc1-c1ncc[nH]1 | –
6 | 39.8 nM | 398 nM | COc1cc(Oc2cnc(N)nc2N)c(C(C)C)cc1I | –
7 | 501 nM | 2000 nM | COc1cc(C(C)C)c(Oc2cnc(N)nc2N)cc1C(C)C | –
8 | 1260 nM | > 10000 nM | COc1cc(Cc2cnc(N)nc2N)c(C2CC2)cc1OC | –
9 | – | > 10000 nM | CCc1cc(OC)c(OC)cc1Cc1cnc(N)nc1N | –
10 | – | 2000 nM | COc1cc(Cc2cnc(N)nc2N)c(C(C)C)cc1OC | –
11 | 158 nM | 2000 nM | CCc1cc(OC)c(OC)cc1Oc1cnc(N)nc1N | –
12 | 25.1 nM | – | COc1cc(Oc2cnc(N)nc2N)c(C(C)C)cc1OC | –
13 | 3980 nM | 2000 nM | CC(C)c1ccccc1Oc1cnc(N)nc1N | –
14 | 3160 nM | 1580 nM | COc1cc(C(C)C)c(Oc2cnc(N)nc2N)cc1F | –
15 | 1000 nM | 2510 nM | COc1cc(C(C)C)c(Oc2cnc(N)nc2N)cc1-c1ccccc1 | –
16 | 20 nM | 79.4 nM | COc1cc(C(C)C)c(Oc2cnc(N)nc2N)cc1Br | –
17 | – | 12.6 nM | C#Cc1cc(Oc2cnc(N)nc2N)c(C(C)C)cc1OC | –
18 | – | > 10000 nM | COc1cc(Cc2cnc(N)nc2N)c(C(C)(C)C)cc1OC | –
19 | 158 nM | 316 nM | COc1cc(C(C)C)c(Oc2cnc(N)nc2N)cc1C(=O)O | –
20 | 50.1 nM | 158 nM | CCc1cc(Oc2cnc(N)nc2N)c(C(C)C)cc1OC | –
21 | 1580 nM | 398 nM | COc1ccc(Oc2cnc(N)nc2N)c(C(C)C)c1 | –
22 | 100 nM | 1580 nM | COc1cc(C(C)C)c(Oc2cnc(N)nc2N)cc1C(N)=O | –
23 | 39.8 nM | 316 nM | COc1cc(C(C)C)c(Oc2cnc(N)nc2N)cc1-c1nnn[nH]1 | –
24 | 2510 nM | 7940 nM | COc1cc(Oc2cnc(N)nc2N)c(C(C)C)cc1-c1ccc(F)cc1 | –
25 | 79.4 nM | 316 nM | COc1cc(Oc2cnc(N)nc2N)c(C(C)C)cc1Br | –
26 | – | > 10000 nM | CCCc1cc(OC)c(OC)cc1Cc1cnc(N)nc1N | –
27 | – | 79.4 nM | COc1cc(C(C)C)c(Oc2cnc(N)nc2N)cc1I | clearance [2]: 13 mL/min/kg; pIC50 (P2X purinoceptor 3; cho): 8; IC50 (P2X purinoceptor 1): > 10000 nM; IC50 (P2X purinoceptor 4): > 10000 nM; IC50 (P2X purinoceptor 7): > 10000 nM; IC50 (P2X purinoceptor 5): > 10000 nM; Ki [3]: 1000 nM; Ratio (Caco-2): 1; Ki [4]: 1000 nM; IC50 (P2X purinoceptor 2): > 10000 nM; Ki [5]: 1000 nM; Ki (Histamine H2 receptor): 1000 nM; Ki [6]: 1000 nM

Row | Compound | IC50 (P2X purinoceptor 3) | IC50 [1] | other results
28 | COc1cc(C(C)C)c(Oc2cnc(N)nc2N)cc1Cl | 25.1 nM | 100 nM | –
29 | COc1cc(Cc2cnc(N)nc2N)c(C2CCC2)cc1OC | > 10000 nM | > 10000 nM | –
30 | COc1cc(C(C)C)c(C(O)c2cnc(N)nc2N)cc1OC (stereo not drawn) | > 10000 nM | > 10000 nM | –
31 | COc1cc(C(=O)c2cnc(N)nc2N)c(C(C)C)cc1OC | > 10000 nM | > 10000 nM | –
32 | COc1cc(C(C)C)c(Oc2cnc(N)nc2N)cc1C1=NCCN1 | > 10000 nM | > 10000 nM | –
33 | COc1cc(Cc2cnc(N)nc2N)c(CC(C)C)cc1OC | > 10000 nM | 10000 nM | –
34 | COc1cc(Oc2cnc(N)nc2N)c(C(C)C)cc1C#N | > 10000 nM | > 10000 nM | –
35 | CCc1cc(OC)c(OC)cc1CCc1cnc(N)nc1N | > 10000 nM | > 10000 nM | –
36 | COc1cc(C)c(Cc2cnc(N)nc2N)cc1OC [ORMETOPRIM] | > 10000 nM | > 10000 nM | –
